Laboratory results published in US6479476B1, “19-nor steroids substituted in position 11β, preparation method and intermediates, application as medicines and pharmaceutical compositions containing them” (Aventis Pharma S.A., priority 1997, dated 2002).
Like-named read-outs stand apart in the source and are kept apart here.

Key:
[1] = system: human mammary cells MCF-7; experiment: Effect on the proliferation of mammary cells (MCF-7, DNA quantitation after 7 days); type: cell-based; set-up: key: The molecules inducing a cellular growth identical to that observed with the solvent alone are classed “inactivated”; Inhibitor: those inducing cellular growth lower than that observed with the solvent are classed “inhibitor”; *Mixed: slight agonist activity in very weak concentrations and inhibitory activity in stronger concentrations; conditions: MCF-7 cells in steroid-free medium, 7 days of culture, DNA analysis; compared with oestradiol at 10^-10M = 100% agonist activity
Description: 1—Effect on the Proliferation of Mammary Cells The proliferative activity of the molecules is studied comparatively with that of oestradiol on the human mammary cells MCF-7 in culture. To highlight the agonist effect of oestradiol and/or the molecules tested, the culture medium for the maintenance of the cells (rich in growth factors and in steroids) is replaced by a more impoverished medium, amongst others lacking in steroids (DMEM supplemented by 5% of serum with steroid removed and without phenol red). The cells undergo this deprivation two days before the start of the trial. After 7 days of culture in the presence of the products to be studied, the cellular proliferation is evaluated by quantitive analysis of the DNA. In each trial, the effect of the oestradiol at 10^−10M (cellular growth in the presence of oestradiol less cellular growth in the presence of solvent) determines the agonist activity at 100%. The activity of the molecules is evaluated in comparison to this internal control. The molecules inducing a cellular growth identical to that observed with the solvent alone are classed “inactivated”, those inducing cellular growth lower than that observed with the solvent are classed “inhibitor”.

[2] = biological target: T1, recombinant human oestrogen receptor (Homo sapiens, UniProt P03372); experiment: Affinity for the human oestrogen receptor (REH), displacement of tritiated oestradiol, relative affinity ARL; type: binding
T1 construct: comprising the coding region for the human oestrogen receptor of wild type; made in house; host or cells: SF9 insect cells (ATCC CRL1711), baculovirus
T1 sequence (P03372 1-595): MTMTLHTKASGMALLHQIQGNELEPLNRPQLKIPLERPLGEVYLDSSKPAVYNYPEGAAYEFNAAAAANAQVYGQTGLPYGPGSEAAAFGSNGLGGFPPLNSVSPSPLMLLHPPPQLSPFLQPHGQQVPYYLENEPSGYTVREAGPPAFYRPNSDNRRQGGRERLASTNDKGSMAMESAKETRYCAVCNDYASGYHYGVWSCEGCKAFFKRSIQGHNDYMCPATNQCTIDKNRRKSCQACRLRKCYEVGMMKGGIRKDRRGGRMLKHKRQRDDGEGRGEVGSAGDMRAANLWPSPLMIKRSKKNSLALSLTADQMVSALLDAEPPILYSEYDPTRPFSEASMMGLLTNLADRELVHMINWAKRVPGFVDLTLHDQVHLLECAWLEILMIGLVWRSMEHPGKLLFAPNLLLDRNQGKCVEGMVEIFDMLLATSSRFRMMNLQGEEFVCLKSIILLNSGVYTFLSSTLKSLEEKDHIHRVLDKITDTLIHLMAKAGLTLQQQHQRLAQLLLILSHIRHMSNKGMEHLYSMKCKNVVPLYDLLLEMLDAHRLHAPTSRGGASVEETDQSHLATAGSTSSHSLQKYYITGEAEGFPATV
Description: 2—Affinity of the Human Oestrogen Receptor (REH)
A cytosolic extract of SF9 cells containing the recombinant human oestrogen receptor is obtained by over-expression in an insect-Baculo-viros system of cells, according to the general methodology described by N. R. WEBB et al. (Journal of Methods in cell and Molecular Biology, (1990) vol 2 n°4, 173-188) and whose application is described for the expression of human hormonal receptors, for example the human glucocorticoid receptor (G.SRINIVASAN et al. Molecular Endocrinology (1990) vol 4 n°2 209-216).
The BaculoGold Transfection Kit (PharMingen, reference 21000K) is used to generate the recombinant baculovirus containing the fragment of DNAc described in the expression vector HEGO by L. TORA et al. (The EMBO Journal (1989) vol 8 n°7 1981-1986) comprising the coding region for the human oestrogen receptor of wild type with glycine in position 400.
The recombinant virus obtained in this way is used to express the […] receptor in the cells of insects SF9 (ATCC CRL1711), according to the known methodology previously cited.
2×10^7 SF9 cells are cultivated in a 175 cm^2 “Falcon” flask in TNM-FH “SIGMA” medium supplemented with 10% of foetal calf serum (FCS) and 50 micrograms/ml of gentamycine. After infection then incubation at 27° C. for 40 to 42 hours, the cells are lysed in 1 ml of lyse buffer (Tris 20 mM-HCl pH8, EDTA 0.5 mM, DTT 2mM, Glycerol 20%, KCl 400 mM) by a freezing-defrosting cycle that is repeated twice more. The supernatant, containing the recombinant human oestrogen receptor is preserved in liquid nitrogen in 0.5 ml amounts.
The supernatant is incubated at 0° C. for 24 hours with a consistent concentration (T) of oestradiol tritiated in the presence of growing concentrations either of cold oestradiol (0-1000×10^−9M), or of cold product to be tested (0-25000×10^−9M). The concentration of linked triated oestradiol (B) is then measured in each incubation by the dextran carbon adsorption technique.
3—Calculation of the Affinity Relative to Linking (ARL)
The 2 following curves are plotted: the percentage of 100×B/BO linked tritiated hormone in comparison to the logarithm of the concentration of cold reference hormone or in comparison to the logarithm of the concentration of cold product tested.
The soundness of the following equation is determined:
B0=Concentration of the linked tritiated hormone in the absence of any cold product,
B=Concentration of the linked tritiated hormone in the presence of an X concentration of cold product,
Bmin=Concentration of linked tritiated hormone for an incubation of this tritiated hormone in concentration (T) in the presence of a large excess of cold reference hormone (1000×10^−9) for human receptor.
The intersections of the right angle I50 and the curves, make it possible to evaluate the concentration of cold reference hormone (CH) and the tested cold product (CX) which inhibit 50% of the bond of the tritiated hormone on the receptor.
The relative affinity of the link (ARL) of the tested product is determined by the equation: […]

[3] = incubation at 0° C. for 24 hours with tritiated oestradiol, ARL=100(CH)/(CX), oestradiol = 100

SMILES	ACTIVITY (proliferative activity on MCF-7 cells) [1]	Relative affinity of the link (ARL), EH oestradiol = 100, 24 H [2]	Relative affinity of the link (ARL), EH oestradiol = 100, 24 H [2, 3]
C[C@]12C[C@H](c3ccc(CCCN4CCCC4)cc3)[C@@H]3c4ccc(O)cc4CC[C@H]3[C@@H]1CC[C@@H]2O [Example 7, 11β-[4-[3-(1-pyrrolidinyl)propyl]phenyl]-estra-1,3,5(10)-trien-3,17β-diol]	Inhibitor	59	
C[C@]12C[C@H](c3ccc(CCCN4CCCCC4)cc3)[C@@H]3c4ccc(O)cc4CC[C@H]3[C@@H]1CC[C@@H]2O [Example 9]	Inhibitor		28
C[C@]12C[C@H](c3ccc(CCCN4CCCCC4)cc3)[C@@H]3c4ccc(O)c(Cl)c4CC[C@H]3[C@@H]1CC[C@@H]2O [Example 11, 4-chloro-11β-[4-[3-(1-piperidinyl)propyl]phenyl]-estra-1,3,5(10) -trien-3,17β-diol]	Mixed	14	
CCN(CC)CCCc1ccc([C@H]2C[C@]3(C)[C@@H](O)CC[C@H]3[C@@H]3CCc4c(ccc(O)c4Cl)[C@H]32)cc1 [Example 12, 4-chloro-11β-[4-[3-(1-diethylamino)propyl]phenyl]-estra-1,3,5(10)-trien-3,17β-diol]	Inhibitor		28
CC1(O)CCC2C3CCc4cc(O)ccc4C3C(c3ccc(CCCN4CCCCC4)cc3)CC21C (stereo not drawn) [Example 13, 17α-methyl-11β-[4-[3-(1-piperidininyl)propyl]phenyl]-estra-1,3,5(10)-trien-3,17β-diol]	Inhibitor		42
C[C@]12CC[C@@H]3c4ccc(O)cc4CC[C@H]3[C@@H]1CC[C@@H]2O [Oestradiol, reference compound]	Agonist		
